According to ChEMBL document CHEMBL4665663, “Anti-atherosclerosis effect of HS donors based on nicotinic acid and chlorfibrate structures” (Bioorg Med Chem, 2019):
Active and inactive are the calls of the source. The calls are words filed in the database; no cut-off is given here.

How the values were obtained:
[1] = Prodrug release in phosphate buffer containing L-cysteine assessed as H2S release by measuring H2S releasing half-life at 60 uM by methylene blue method; assay type: ADME
[2] = test system: H9c2; assay: Cytotoxicity against rat H9c2 cells assessed as reduction in cell viability after 48 hrs by MTT assay; assay type: cell-based; settings: H9c2, 48 h
[3] = test system: HUVEC; assay: Cytotoxicity against human HUVEC cells assessed as reduction in cell viability after 48 hrs by MTT assay; assay type: cell-based
[4] = test system: RAW264.7; assay: Cytotoxicity against mouse RAW264.7 cells assessed as reduction in cell viability after 48 hrs by MTT assay; assay type: cell-based; settings: RAW264.7, 48 h
[5] = test system: WI-38; assay: Cytotoxicity against human WI38 cells assessed as reduction in cell viability after 48 hrs by MTT assay; assay type: cell-based; settings: WI-38, 48 h
[6] = test system: RAW264.7; assay: Anti-atherosclerotic activity in mouse RAW264.7 cells assessed as decrease in ox-LDL induced intracellular lipid accumulation by measuring reduction in total cholesterol level at 10 to 50 uM preincubated for 10 mins followed by ox-LDL stimulation and measured after 24 hrs by colorimetric method; assay type: functional, cell-based; settings: dose microM 10-50, time 10.0 min
[7] = test system: RAW264.7; assay: Anti-atherosclerotic activity in mouse RAW264.7 cells assessed as decrease in ox-LDL induced intracellular lipid accumulation by measuring reduction in free cholesterol level at 10 to 50 uM preincubated for 10 mins followed by ox-LDL stimulation and measured after 24 hrs by colorimetric method; assay type: functional, cell-based; settings: dose microM 10-50, time 10.0 min
[8] = test system: RAW264.7; assay: Antioxidant activity in mouse RAW264.7 cells assessed as reduction in ox-LDL induced ROS accumulation at 10 uM preincubated for 10 mins followed by ox-LDL stimulation and measured after 24 hrs by DCFH-DA staining based fluorescence microscopic analysis; assay type: functional, cell-based
[9] = test system: RAW264.7; assay: Antioxidant activity in mouse RAW264.7 cells assessed as reduction in ox-LDL induced oxidative stress by measuring decrease in MDA level at 10 to 50 uM preincubated for 10 mins followed by ox-LDL stimulation and measured after 24 hrs; assay type: functional, cell-based; settings: dose microM 10-50, time 10.0 min
[10] = test system: RAW264.7; assay: Antioxidant activity in mouse RAW264.7 cells assessed as reduction in ox-LDL induced oxidative stress by measuring increase in SOD level at 10 to 50 uM preincubated for 10 mins followed by ox-LDL stimulation and measured after 24 hrs; assay type: functional, cell-based; settings: dose microM 10-50, time 10.0 min
[11] = test system: RAW264.7; assay: Anti-inflammatory activity in mouse RAW264.7 cells assessed as decrease in ox-LDL induced inflammatory reaction by measuring decrease in TNF-alpha production at 10 to 50 uM preincubated for 10 mins followed by ox-LDL stimulation and measured after 24 hrs; assay type: functional, cell-based; settings: dose microM 10-50, time 10.0 min
[12] = test system: RAW264.7; assay: Anti-inflammatory activity in mouse RAW264.7 cells assessed as decrease in ox-LDL induced inflammatory reaction by measuring increase in IL-10 production at 10 to 50 uM preincubated for 10 mins followed by ox-LDL stimulation and measured after 24 hrs; assay type: functional, cell-based; settings: dose microM 10-50, time 10.0 min
[13] = test system: RAW264.7; assay: Inhibition of macrophage foam cell formation in mouse RAW264.7 cells assessed as reduction in ox-LDL induced red lipid droplets formation at 10 uM preincubated for 10 mins followed by ox-LDL stimulation and measured after 24 hrs by oil red O staining based inverted microscopy analysis; assay type: functional
[14] = test system: HUVEC; assay: Cytoprotective activity against ox-LDL induced cell damage in human HUVEC cells assessed as increase in cell viability at 50 uM preincubated for 10 mins followed by ox-LDL stimulation measured after 24 hrs by MTT assay; assay type: functional, cell-based
[15] = test system: HUVEC; assay: Cytotoxicity against human HUVEC cells assessed as reduction in cell viability at 10 to 100 uM by MTT assay; assay type: cell-based; settings: dose 10-100 µM
[16] = test system: HUVEC; assay: Cytoprotective activity against ox-LDL induced cell damage in human HUVEC cells assessed as cell viability at 100 uM preincubated for 10 mins followed by ox-LDL stimulation measured after 24 hrs by MTT assay (reference value: 73.1%); assay type: functional; settings: read-out: Activity
[17] = test system: HUVEC; assay: Anti-atherosclerotic activity against ox-LDL induced cell damage in human HUVEC cells assessed as reduction in nuclear pyknosis and apoptotic bodies formation preincubated for 10 mins followed by ox-LDL stimulation and measured after 24 hrs by Hoechst 33342 staining based fluorescence microscopy; assay type: functional
[18] = test system: HUVEC; assay: Anti-atherosclerotic activity against ox-LDL induced cell damage in human HUVEC cells assessed as reduction in late apoptotic and death cells preincubated for 10 mins followed by ox-LDL stimulation and measured after 24 hrs by PI staining based fluorescence microscopic analysis; assay type: functional
[19] = test system: HUVEC; assay: Anti-atherosclerotic activity against ox-LDL induced cell damage in human HUVEC cells assessed as reduction in early apoptotic cells by measuring increase in mitochondrial membrane potential preincubated for 10 mins followed by ox-LDL stimulation and measured after 24 hrs by JC-1 staining based fluorescence microscopic analysis; assay type: functional
[20] = test system: RAW264.7; assay: Antioxidant activity in mouse RAW264.7 cells assessed as reduction in ox-LDL-induced oxidative stress by measuring increase in SOD level at 50 uM preincubated for 10 mins followed by ox-LDL stimulation and measured after 24 hrs relative to control; assay type: functional; set-up: scale not given: the % may be the effect or the level left
[21] = test system: HUVEC; assay: Anti-atherosclerotic activity against ox-LDL induced apoptosis in human HUVEC cells assessed as reduction in Bax expression at 10 to 50 uM preincubated for 10 mins followed by ox-LDL stimulation and measured after 24 hrs by ELISA; assay type: functional, cell-based; settings: dose microM 10-50, time 10.0 min
[22] = test system: HUVEC; assay: Anti-atherosclerotic activity against ox-LDL induced apoptosis in human HUVEC cells assessed as reduction in caspase-3 expression at 10 to 50 uM preincubated for 10 mins followed by ox-LDL stimulation and measured after 24 hrs by ELISA; assay type: functional, cell-based; settings: dose microM 10-50, time 10.0 min
[23] = test system: HUVEC; assay: Anti-atherosclerotic activity against ox-LDL induced apoptosis in human HUVEC cells assessed as increase in bcl-2 expression at 50 uM preincubated for 10 mins followed by ox-LDL stimulation and measured after 24 hrs by ELISA; assay type: functional
[24] = test system: RAW264.7; assay: Inhibition of macrophage foam cell formation in mouse RAW264.7 cells assessed as reduction in ox-LDL induced red lipid droplets formation preincubated for 10 mins followed by ox-LDL stimulation and measured after 24 hrs by oil red O staining based inverted microscopy analysis; assay type: functional; settings: dose microM 10-50, time 10.0 min
[25] = test system: RAW264.7; assay: Inhibition of macrophage foam cell formation in mouse RAW264.7 cells assessed as reduction in ox-LDL induced red lipid droplets formation at 50 uM preincubated for 10 mins followed by ox-LDL stimulation and measured after 24 hrs by oil red O staining based inverted microscopy analysis; assay type: functional
[26] = test system: RAW264.7; assay: Anti-atherosclerotic activity in mouse RAW264.7 cells assessed as decrease in ox-LDL induced intracellular lipid accumulation by measuring reduction in CE/TC ratio at 50 uM preincubated for 10 mins followed by ox-LDL stimulation and measured after 24 hrs by colorimetric method relative to control; assay type: functional; settings: RAW264.7, 10 min
[27] = test system: RAW264.7; assay: Antioxidant activity in mouse RAW264.7 cells assessed as reduction in ox-LDL induced ROS accumulation at 10 to 50 uM preincubated for 10 mins followed by ox-LDL stimulation and measured after 24 hrs by DCFH-DA staining based fluorescence microscopic analysis; assay type: functional, cell-based; settings: dose microM 10-50, time 10.0 min
[28] = test system: RAW264.7; assay: Antioxidant activity in mouse RAW264.7 cells assessed as reduction in ox-LDL induced oxidative stress by measuring decrease in MDA level at 50 uM preincubated for 10 mins followed by ox-LDL stimulation and measured after 24 hrs relative to control; assay type: functional; settings: RAW264.7, 10 min
[29] = test system: RAW264.7; assay: Anti-inflammatory activity in mouse RAW264.7 cells assessed as decrease in ox-LDL induced inflammatory reaction by measuring decrease in TNF-alpha production preincubated for 10 mins followed by ox-LDL stimulation and measured after 24 hrs; assay type: functional, cell-based; settings: dose microM 10-50, time 10.0 min
[30] = test system: RAW264.7; assay: Anti-inflammatory activity in mouse RAW264.7 cells assessed as decrease in ox-LDL induced inflammatory reaction by measuring increase in IL-10 production preincubated for 10 mins followed by ox-LDL stimulation and measured after 24 hrs; assay type: functional, cell-based; settings: dose microM 10-50, time 10.0 min
[31] = test system: RAW264.7; assay: Anti-atherosclerotic activity in mouse RAW264.7 cells assessed as decrease in ox-LDL induced PI3K protein expression at 10 to 50 uM preincubated for 10 mins followed by ox-LDL stimulation and measured after 24 hrs by Western blot analysis; assay type: functional, cell-based; settings: dose microM 10-50, time 10.0 min
[32] = test system: RAW264.7; assay: Anti-atherosclerotic activity in mouse RAW264.7 cells assessed as decrease in ox-LDL induced AKT protein expression at 10 to 50 uM preincubated for 10 mins followed by ox-LDL stimulation and measured after 24 hrs by Western blot analysis; assay type: functional, cell-based; settings: dose microM 10-50, time 10.0 min
[33] = test system: RAW264.7; assay: Anti-atherosclerotic activity in mouse RAW264.7 cells assessed as decrease in ox-LDL induced NFkappaB protein expression at 10 to 50 uM preincubated for 10 mins followed by ox-LDL stimulation and measured after 24 hrs by Western blot analysis; assay type: functional, cell-based; settings: dose microM 10-50, time 10.0 min

| Structure (SMILES) | t1/2 [1] [min] | IC50 [2] [µM] | IC50 [3] [µM] | IC50 [4] [µM] | IC50 [5] [µM] | Activity [6] | Activity [7] | also measured |
| --- | --- | --- | --- | --- | --- | --- | --- | --- |
| CC(C)(Oc1ccc(Cl)cc1)C(=O)NCCOC(=S)Nc1ccccc1 | 1.4 | > 800 | 791 | > 800 | > 800 | – | – | – |
| CCOC(=O)C(C)(C)Oc1ccc(Cl)cc1 | – | – | – | – | – | Active | Active | Activity [8]: inactive; Activity [9]: inactive; Activity [10]: inactive; Activity [11]: Active; Activity [12]: Active; inhibition [13]: Active |
| CC(C)(Oc1ccc(Cl)cc1)C(=O)NCCOC(=S)Nc1ccc(F)cc1 | 1.2 | > 800 | 773 | > 800 | > 800 | – | – | – |
| NC(=S)c1ccc(OC(=O)c2cccnc2)cc1 | 2.1 | 754 | 683 | > 800 | > 800 | – | – | – |
| O=C(O)c1cccnc1 | – | – | – | – | – | Active | Active | Activity [8]: inactive; Activity [9]: inactive; Activity [10]: inactive; Activity [11]: Active; Activity [12]: Active; inhibition [13]: Active |
| Cc1ccc(NC(=S)OCCNC(=O)C(C)(C)Oc2ccc(Cl)cc2)cc1 | 1 | 771 | 661 | > 800 | > 800 | – | – | – |

More lines, main results first:

| t1/2 [1] [min] | Structure (SMILES) | IC50 [2] [µM] | IC50 [3] [µM] | IC50 [4] [µM] | IC50 [5] [µM] | Activity [6] | Activity [7] | also measured |
| --- | --- | --- | --- | --- | --- | --- | --- | --- |
| 3.9 | Cc1cnc(C(=O)Oc2ccc(C(N)=S)cc2)c[n+]1[O-] | 780 | 714 | > 800 | > 800 | – | – | – |
| 1.2 | O=C(NCCOC(=S)Nc1ccccc1)c1cccnc1 | > 800 | 724 | > 800 | > 800 | – | – | – |
| 15.3 | O=C(CCCCC1CCSS1)OCCCOC(=O)c1cccnc1 (stereo not drawn) | > 800 | > 800 | > 800 | > 800 | Active | Active | Activity [14]: Active; Activity [15]: Non-Toxic; viability at 100 µM [16]: 85.9%; Activity [17]: Active; Activity [18]: Active; Activity [19]: Active; Activity [20]: 48.3%; Activity [21]: Active; Activity [22]: Active; Activity [23]: 32.7%; inhibition [24]: Dose-dependent effect; inhibition [25]: Active; inhibition at 50 µM [26]: 32.4%; Activity [27]: Active; inhibition at 50 µM [28]: 47%; Activity [29]: Dose-dependent effect; Activity [30]: Dose-dependent effect; Activity [31]: Active; Activity [32]: Active; Activity [33]: Active |
| 19.8 | Cc1cnc(C(=O)OCCCOC(=O)CCCCC2CCSS2)c[n+]1[O-] (stereo not drawn) | > 800 | > 800 | > 800 | > 800 | – | – | – |
